Read-outs that look alike come from different tables or passages of the source.
Columns and labels:
plasma proteins [1] = experiment: In vivo plasma protein binding in dogs (plasma ultrafiltrate); details: dog; for fraction unbound: plasma
Text: (§1) Br. J. Cancer (1984), 50, 291-303 Preclinical pharmacokinetics of benznidazole P. Workman', R.A.S. White2, M.I. Walton', L.N. Owen2* & P.R. Twentyman' 1MRC Clinical Oncology and Radiotherapeutics Unit, MRC Centre, Hills Road, Cambridge CB2 2QH, and 2Department of Clinical Veterinary Medicine, University of Cambridge, Madingley Road, Cambridge CB3 OES, UK. […] We have investigated the detailed pharmacokinetics of benznidazole in mice, dogs and sheep to provide a data base for the estimation of doses required for chemosensitization in man. Pharmacokinetic behaviour was linear except at high doses in mice. Absorption was fairly rapid and bioavailability was complete following both i.p. administration in mice and oral administration in dogs. Elimination t4 values were longer than for MISO, being 90 min in mice, 4-5 h in sheep and 9-11 h in dogs. At doses giving linear kinetics, peak whole plasma concentrations per administered mgkg-1 were 0.75 jigml-1 for the i.p. route in mice and 1.8jugmlP' for the oral route in dogs. Though between 39 and 59% of plasma benznidazole was bound to protein, tissue penetration was generally good. Tissue/whole plasma ratios ranged from 59-99% for transplantable mouse tumours and from 14-70% for spontaneous dog neoplasms. Nervous tissue penetration was similar to that in tumours: brain/whole plasma ratios averaged between 61 and 76% in mice and 42% in dogs, while peripheral nerve/whole plasma ratios in dogs averaged 74%. Mean liver/whole plasma ratios were 42% and 71% in BALB/c and C3H/He mouse strains respectively. Only -5% of the administered dose was excreted unchanged in the urine, indicating the likelihood of extensive metabolism. […] Enhancement of CCNU response is likely to require circulating benznidazole concentrations of 10-30 pgml-1 and we predict that these will be obtained with oral doses of 6-20 mgkg- 1 in man. […] This enhancement, or chemosensitization, is usually greater than that seen in dose-limiting normal tissues, resulting in an improved therapeutic index. Because of the relatively high doses of MISO usually required for chemosensitization in mice (see above refs), and also because of its neurotoxicity in man (Dische et al., 1977), we have been interested in finding an improved chemosensitizer. […] The lipophilic ana- logue benznidazole (N-benzyl-(2-nitroimidazolyl) acetamide, Ro 07-1051; Radanil; Roche), the structure of which is shown in Figure 1, was selected for detailed study because of its ability to *Present address: Animal Health Trust, Small Animals Centre, Lanwades Park, Kennett, Newmarket, Suffolk CB8 7PN, UK. Correspondence: P. Workman. […] These findings have been confirmed independently by Siemann et al. (1983). Although benznidazole is used quite widely in South America to treat patients with the trypanosomal infection Chagas' disease or with mucotaneous Leishmaniasis (Barclay et al., 1978; Cerisola et al., 1978; Coura et al., 1978; Fava et al., 1978), apart from our preliminary studies (White et al., 1982) the only published data on its pharmaco- kinetics are for human plasma concentrations measured by polarography (Raaflub & Ziegler, 1979; Raaflub, 1980). Here we describe the pharmacokinetics of benznidazole in the mouse, sheep and dog, as determined by high-performance liquid chromatography (HPLC). […] The Macmillan Press Ltd., 1984 292 P. WORKMAN et al. particularly on plasma and tumour concentrations, have been used as a basis for the estimation of the benznidazole doses required in a Phase I trial of benznidazole plus CCNU, at present ongoing in our Unit. Materials and methods Animals and tumours Adult inbred male BALB/c mice were obtained from OLAC (Southern) Ltd. (Bicester, UK) and adult inbred C3H/He mice of both sexes from OLAC and our own breeding colony. Mice were housed in plastic cages on sawdust bedding made from soft white woods, and allowed laboratory chow and water ad lib. They were used at 20-35 g body wt.

[2] = Penetration into whole brain of BALB/c mice bearing EMT6 tumours; type: in vivo, mouse; details: for brain/whole plasma ratio (% ± s.e.) / brain/whole plasma ratio (s.e., n=5): 650 mg kg-1 i.p.; for tumour/brain ratio (% + s.e.): EMT6, 650 mg kg-1 i.p.; for brain/whole plasma ratio (s.e., n=5): experiment b; for Kp: male, BALB/c, mouse, whole brain / whole plasma
Text: as §1

plasma proteins [3] = experiment: Plasma protein binding, summary over species; type: in vivo; details: mouse, sheep, dog, range over species studied
Text: Br. J. Cancer (1984), 50, 291-303 Preclinical pharmacokinetics of benznidazole P. Workman', R.A.S. White2, M.I. Walton', L.N. Owen2* & P.R. Twentyman' 1MRC Clinical Oncology and Radiotherapeutics Unit, MRC Centre, Hills Road, Cambridge CB2 2QH, and 2Department of Clinical Veterinary Medicine, University of Cambridge, Madingley Road, Cambridge CB3 OES, UK. […] We have investigated the detailed pharmacokinetics of benznidazole in mice, dogs and sheep to provide a data base for the estimation of doses required for chemosensitization in man. Pharmacokinetic behaviour was linear except at high doses in mice. Absorption was fairly rapid and bioavailability was complete following both i.p. administration in mice and oral administration in dogs. […] Although benznidazole is used quite widely in South America to treat patients with the trypanosomal infection Chagas' disease or with mucotaneous Leishmaniasis (Barclay et al., 1978; Cerisola et al., 1978; Coura et al., 1978; Fava et al., 1978), apart from our preliminary studies (White et al., 1982) the only published data on its pharmaco- kinetics are for human plasma concentrations measured by polarography (Raaflub & Ziegler, 1979; Raaflub, 1980). Here we describe the pharmacokinetics of benznidazole in the mouse, sheep and dog, as determined by high-performance liquid chromatography (HPLC). […]

[4] = cited from earlier work
[5] = parameters: method as in earlier work; details: patients, 5 mg kg-1 day-1 for 30 days, side effects incl. peripheral neuropathy observed in these studies, ref Barclay et al., 1978, Cerisola et al., Coura et al., Fava et al.; cited from earlier work
[6] = man, average daily dose 3.5 mg kg-1, literature

fraction unbound (plasma proteins [1]; beagle, po, 50 mg kg-1, dog F, 50 mg kg-1 oral, full time course, read-out: protein binding (mean+s.e., n=8) (converted)): 0.48 | fraction unbound (plasma proteins [1]; collie crossbred, beagle, iv, dogs, apart from the two i.v. time courses, read-out: in vivo protein binding, range): 0.41 to 0.48 | fraction unbound (plasma proteins [1]; collie crossbred, iv, 5 mg kg-1, dog C, 5 mg kg-1 i.v., full time course, read-out: protein binding (mean+s.e., n=8) (converted)): 0.28 | fraction unbound (plasma proteins [1]; collie crossbred, iv, 5 mg kg-1, dog D, 5 mg kg-1 i.v., full time course, read-out: protein binding (mean+s.e., n=8) (converted)): 0.26 | fraction unbound (plasma proteins [1]; collie crossbred, po, 25 mg kg-1, dog A, 25 mg kg-1 oral, mean of 4 and 5 h values, read-out: protein binding (converted)): 0.47 | fraction unbound (plasma proteins [1]; collie crossbred, po, 25 mg kg-1, dog B, 25 mg kg-1 oral, mean of 4 and 5 h values, read-out: protein binding (converted)): 0.41 | fraction unbound (plasma proteins [1]; collie crossbred, po, 25 mg kg-1, dog C, 25 mg kg-1 oral, mean of 4 and 5 h values, read-out: protein binding (converted)): 0.45 | fraction unbound (plasma proteins [1]; collie crossbred, po, 25 mg kg-1, dog D, 25 mg kg-1 oral, mean of 4 and 5 h values, read-out: protein binding (converted)): 0.47 | binding to plasma proteins (plasma proteins [1]; discussion summary): 59% | brain/whole plasma ratio (% ± s.e.) ([2]; Exp 1 (a), n=16): 61+5% | tumour/brain ratio (% + s.e.) ([2]; Exp 1 (a), n=16): 120+33% | brain/whole plasma ratio (% ± s.e.) ([2]; Exp 2 (b), n=20): 68+3% | tumour/brain ratio (% + s.e.) ([2]; Exp 2 (b), n=20): 116+5% | brain/whole plasma ratio (% ± s.e.) ([2]; Exp 3 (c), n=20): 76+4% | tumour/brain ratio (% + s.e.) ([2]; Exp 3 (c), n=20): 99+7% | brain/whole plasma ratio (s.e., n=5) ([2]; 45 min): 56+3% | brain/whole plasma ratio (s.e., n=5) ([2]; 75 min): 69+3% | brain/whole plasma ratio (s.e., n=5) ([2]; 105 min): 71+5% | brain/whole plasma ratio (s.e., n=5) ([2]; 135 min): 75 +5% | Kp ([2]; mice, discussion comparison with MISO, read-out: brain/whole plasma ratio): 0.68 | Kp ([2]; read-out: brain/whole plasma ratios, range of averages): 0.61 to 0.76 | fraction unbound (plasma proteins [3]): 0.41 to 0.61
Compound: O=C(Cn1ccnc1[N+](=O)[O-])NCc1ccccc1 [benznidazole, N-benzyl-(2-nitroimidazolyl) acetamide]
mean t1/2 ([4]; humans, low doses, polarographic analysis, ref Raaflub & Ziegler (1979) and Raaflub (1980)): 12 to 14 h | mean steady state maximum plasma concentration (s.e., n=6) [4, 6]: 12.4 ± 0.7 µg/mL | mean steady state minimum plasma concentration (s.e., n=6) [4, 6]: 8.3 ± 0.6 µg/mL | peak time ([4]; man, low oral doses, ref Raaflub & Ziegler, 1979): 3 to 4 h | mean peak plasma concentration per administered mg kg-1 (s.e., n=7) ([4]; man, oral, low doses (mean 1.73 mg kg-1), ref Raaflub & Ziegler, 1979): 1.48 + 0.06 µg ml-1 | tolerability [5]: well tolerated
